{"source": "patent US8283345B2", "about": "“Azetidine analogues of nucleosidase and phosphorylase inhibitors” (Industrial Research Limited, priority 2006, dated 2012)", "key": {"Human PNP": {"target": "T1, Human PNP (Homo sapiens, UniProt P00491)", "T1 sequence (P00491 1-289)": "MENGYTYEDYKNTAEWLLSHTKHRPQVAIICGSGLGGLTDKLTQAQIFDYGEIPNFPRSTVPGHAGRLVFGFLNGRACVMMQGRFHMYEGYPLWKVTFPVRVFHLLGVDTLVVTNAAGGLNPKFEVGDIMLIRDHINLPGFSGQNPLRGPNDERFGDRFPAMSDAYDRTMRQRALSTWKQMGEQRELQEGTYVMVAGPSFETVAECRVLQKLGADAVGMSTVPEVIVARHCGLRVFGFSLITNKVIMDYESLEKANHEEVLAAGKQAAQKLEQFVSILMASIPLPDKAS", "assay": "PNP inhibition, xanthine oxidase coupled assay", "type": "biochemical", "conditions": "inosine Km 40 μM", "quoted_text": "(§2) PNP and MTAN/MTAP activities were monitored by xanthine oxidase coupled assays, as previously described [Biochemistry, 2006, 45, 12929-12941; Biochemistry, 1998, 37, 8615-8621]. […] Michaelis constants used in data fitting were as follows: 40 μM, 34 μM, and 5 μM for inosine with human, bovine, and P. falciparum PNPs, respectively; 5 μM, 0.43 μM, and 23 μM for MTA with human MTAP, E. coli MTAN, and S. pneumoniae MTAN, respectively."}, "Bovine PNP": {"target": "T2, Bovine PNP (Bos taurus, UniProt P55859)", "T2 sequence (P55859 1-289)": "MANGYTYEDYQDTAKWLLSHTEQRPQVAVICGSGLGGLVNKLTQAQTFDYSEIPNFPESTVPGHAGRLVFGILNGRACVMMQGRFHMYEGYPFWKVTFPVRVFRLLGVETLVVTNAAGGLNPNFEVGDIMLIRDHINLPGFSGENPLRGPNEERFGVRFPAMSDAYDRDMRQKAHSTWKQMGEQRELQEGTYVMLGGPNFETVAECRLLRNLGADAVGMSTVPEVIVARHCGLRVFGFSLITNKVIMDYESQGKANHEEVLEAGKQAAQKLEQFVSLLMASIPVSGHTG", "assay": "PNP inhibition, xanthine oxidase coupled assay", "type": "biochemical", "quoted_text": "as §2"}, "P. falciparum PNP": {"target": "T3, P. falciparum PNP (Plasmodium falciparum, UniProt Q8I3X4)", "T3 sequence (Q8I3X4 1-245)": "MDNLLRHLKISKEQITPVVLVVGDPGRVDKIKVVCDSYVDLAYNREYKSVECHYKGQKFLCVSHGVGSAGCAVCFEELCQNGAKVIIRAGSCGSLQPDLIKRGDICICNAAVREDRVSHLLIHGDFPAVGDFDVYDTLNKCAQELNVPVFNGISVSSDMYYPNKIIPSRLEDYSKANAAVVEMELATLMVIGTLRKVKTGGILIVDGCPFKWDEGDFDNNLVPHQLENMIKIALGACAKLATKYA", "assay": "biochemical", "quoted_text": "as §2"}, "Human MTAP": {"target": "T4, Human MTAP (Homo sapiens, UniProt Q13126)", "T4 sequence (Q13126 1-283)": "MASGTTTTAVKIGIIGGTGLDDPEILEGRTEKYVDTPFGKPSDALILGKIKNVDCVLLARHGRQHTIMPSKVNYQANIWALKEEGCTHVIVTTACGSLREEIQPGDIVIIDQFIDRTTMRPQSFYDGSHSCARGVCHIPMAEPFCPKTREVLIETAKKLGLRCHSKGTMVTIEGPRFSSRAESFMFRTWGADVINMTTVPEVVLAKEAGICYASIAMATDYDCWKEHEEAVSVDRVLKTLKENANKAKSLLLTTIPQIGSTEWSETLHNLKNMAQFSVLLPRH", "assay": "MTAP inhibition, xanthine oxidase coupled assay", "type": "biochemical", "conditions": "MTA Km 5 μM"}, "S. pneumoniae MTAN": {"target": "S. pneumoniae MTAN (Streptococcus pneumoniae, UniProt Q8DQ16)", "sequence (Q8DQ16 entry or part of it)": "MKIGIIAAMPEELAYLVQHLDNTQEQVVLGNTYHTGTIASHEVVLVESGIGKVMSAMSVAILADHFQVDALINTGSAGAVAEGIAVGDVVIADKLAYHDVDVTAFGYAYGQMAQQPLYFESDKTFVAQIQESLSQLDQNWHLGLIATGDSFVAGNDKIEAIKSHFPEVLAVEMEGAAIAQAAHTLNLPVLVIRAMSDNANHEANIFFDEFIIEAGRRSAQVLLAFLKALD", "assay": "MTAN inhibition, xanthine oxidase coupled assay", "type": "biochemical", "conditions": "MTA Km 23 μM", "experimental": "(§1) For PNP assays, inosine and inhibitor concentrations were determined spectrophotometrically using an ε260 of 7.1 mM^−1 cm^−1 (pH 6) [Dawson' et al, Data for Biochemical Research, 3rd ed., 1986, Clarendon Press, Oxford, U.K.] and an ε261 of 9.54 mM^−1 cm^−1 (pH 7) [Lim, M.-I.; Ren, Y.-Y.; Otter, B. A.; Klein, R. S., J. Org. Chem. 1983, 48, 780-788], respectively. For MTAN/MTAP assays, methylthioadenosine and inhibitor concentrations were determined using an ε260 of 14.9 mM^−1 cm^−1 (pH 6) [Dawson et al, as above] and an ε275 of 8.5 mM^−1 cm^−1 (pH 7), [J. Org. Chem. 1983, 48, 780-788] respectively. PNP and MTAN/MTAP activities were monitored by xanthine oxidase coupled assays, as previously described [Biochemistry, 2006, 45, 12929-12941; Biochemistry, 1998, 37, 8615-8621]. In all cases, the inhibitor concentration was at least 10-fold greater than the enzyme concentration, as required for simple analysis of slow-onset tight-binding inhibition [Morrison, J. F.; Walsh, C. T. Adv. Enzymol. Relat. Areas Mol. Biol., 1988, 61, 201-301] Michaelis constants used in data fitting were as follows: 40 μM, 34 μM, and 5 μM for inosine with human, bovine, and P. falciparum PNPs, respectively; 5 μM, 0.43 μM, and 23 μM for MTA with human MTAP, E. coli MTAN, and S. pneumoniae MTAN, respectively."}, "E. coli MTAN": {"target": "E. coli MTAN (Escherichia coli, UniProt P0AF12)", "sequence (P0AF12 whole entry)": "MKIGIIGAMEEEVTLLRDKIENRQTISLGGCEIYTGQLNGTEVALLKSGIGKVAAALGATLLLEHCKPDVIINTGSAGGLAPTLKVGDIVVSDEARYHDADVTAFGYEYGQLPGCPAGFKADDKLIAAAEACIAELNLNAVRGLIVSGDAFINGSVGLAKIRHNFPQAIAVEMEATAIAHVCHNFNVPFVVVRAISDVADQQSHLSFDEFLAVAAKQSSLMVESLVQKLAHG", "assay": "MTAN inhibition, xanthine oxidase coupled assay", "type": "biochemical", "conditions": "MTA Km 0.43 μM", "experimental": "as §1"}, "[1]": {"conditions": "inhibition constant Ki, read-out: Ki Human PNP"}, "[2]": {"conditions": "inhibition constant Ki, inosine Km 34 μM, read-out: Ki Bovine PNP"}}, "note": "Counter-ions that a name gives are not always drawn. Like-named read-outs stand apart in the source and are kept apart here."}
{"smiles": "O=c1[nH]cnc2c(CN3[C@H](CO)C[C@H]3CO)c[nH]c12", "note": "(racemic) [(±)-37, (±)2,4-trans-[(9-Deazahypoxanthin-9-yl)methyl]azetidine-2,4-dimethanol hydrochloride]", "values": [{"measurement": "Ki", "setting": "Human PNP; [1]", "result": 280, "unit": "nM"}, {"measurement": "Ki", "setting": "Bovine PNP; [2]", "result": 360, "unit": "nM"}, {"measurement": "Ki", "setting": "P. falciparum PNP", "result": 580, "unit": "nM"}]}
{"smiles": "O=c1[nH]cnc2c(CN3CCC3CO)c[nH]c12", "note": "(racemic) [(±)-43, (±)7-((2-(Hydroxymethyl)azetidin-1-yl)methyl)-5H-pyrrolo[3,2-d]pyrimidin-4-ol]", "values": [{"measurement": "Ki", "setting": "Human PNP; Ki Human PNP, inhibition constant Ki", "result": 1.8, "unit": "nM"}, {"measurement": "Ki", "setting": "Human PNP; Ki* Human PNP, Ki*, slow-onset tight-binding inhibition", "result": 0.26, "unit": "nM"}, {"measurement": "Ki", "setting": "Bovine PNP", "result": 1.8, "unit": "nM"}]}
{"smiles": "O=c1[nH]cnc2c(CN3CC(CO)(CO)C3)c[nH]c12", "note": "[Compound 18, 1-[(9-Deazahypoxanthin-9-yl)methyl]azetidine-3,3-dimethanol]", "values": [{"measurement": "Ki", "setting": "Human PNP; [1]", "result": 0.229, "unit": "nM"}, {"measurement": "Ki", "setting": "Bovine PNP", "result": 0.065, "unit": "nM"}, {"measurement": "Ki", "setting": "Bovine PNP; Ki*, slow-onset tight-binding inhibition, inosine Km 34 μM, read-out: Ki* Bovine PNP", "result": 0.236, "unit": "nM"}, {"measurement": "Ki", "setting": "P. falciparum PNP", "result": "> 10000", "unit": "nM"}]}
{"smiles": "O=c1[nH]cnc2c(CN3CC(CO)C3)c[nH]c12", "note": "[Compound 19, 1-[(9-Deazahypoxanthin-9-yl)methyl]azetindine-3-methanol]", "values": [{"measurement": "Ki", "setting": "Human PNP; [1]", "result": 6.3, "unit": "nM"}, {"measurement": "Ki", "setting": "Bovine PNP; [2]", "result": 4.8, "unit": "nM"}, {"measurement": "Ki", "setting": "P. falciparum PNP; read-out: Ki P. falciparum PNP", "result": "> 10000", "unit": "nM"}]}
{"smiles": "CSCC1(CO)CN(Cc2c[nH]c3c(N)ncnc23)C1", "note": "[Compound 21, 1-[(9-Deazaadenin-9-yl)methyl]-3-methylthiomethylazetidine-3-methanol hydrochloride]", "values": [{"measurement": "Ki", "setting": "Human MTAP", "result": 140, "unit": "nM"}, {"measurement": "Ki", "setting": "S. pneumoniae MTAN", "result": 150, "unit": "nM"}, {"measurement": "Ki", "setting": "E. coli MTAN", "result": 0.84, "unit": "nM"}]}
{"smiles": "CSCC1CN(Cc2c[nH]c3c(N)ncnc23)C1", "note": "[Compound 22, 1-[(9-Deazaadenin-9-yl)methyl]-3-methylthiomethylazetidine]", "values": [{"measurement": "Ki", "setting": "Human MTAP", "result": 2, "unit": "nM"}, {"measurement": "Ki", "setting": "S. pneumoniae MTAN", "result": 84, "unit": "nM"}, {"measurement": "Ki", "setting": "E. coli MTAN", "result": 0.45, "unit": "nM"}]}
{"smiles": "O=c1[nH]cnc2c(CN3[C@H](CO)C[C@@H]3CO)c[nH]c12", "note": "[Compound 36, meso-[(9-Deazahypoxanthin-9-yl)methyl]azetidine-2,4-dimethanol hydrochloride]", "values": [{"measurement": "Ki", "setting": "Human PNP; [1]", "result": 12.9, "unit": "nM"}, {"measurement": "Ki", "setting": "Bovine PNP; [2]", "result": 16, "unit": "nM"}, {"measurement": "Ki", "setting": "P. falciparum PNP", "result": 1290, "unit": "nM"}]}
